Marks after values point to notes of the source that are not given here.
What was measured:
[1] = In vitro skin permeation, Franz cell infinite dose study (optimisation studies with MP, BP, CF); conditions: CF; for EF enhancement factor: flux vs untreated skin
[2] = In vitro skin permeation, Franz cell pseudo-finite dose study (acyclovir and CF); format: in vitro ADME, human; conditions: pseudo-finite dose
Description: Zovirax® spiked with ^3H-ACV was used as the formulation for the entire study. Briefly, 300 μl of ^3H ACV was placed into a 1.5 ml centrifuge tube and evaporated off, over a stream of air. Approximately 1 g of Zovirax® was weighed into the centrifuge tube and carefully mixed with a fine spatula to achieve a homogenous mix. To test for homogeneity, 3 random samples (top, middle and bottom) were taken and determined for radioactivity via scintillation counting.
Anodal treatment was conducted by placing the anode electrode in the donor compartment and the opposite electrode (cathode) in the receptor compartment of the Franz cell. Cathodal iontophoresis was conducted vice versa. The current treatment protocols employed were either • (a) iontophoresis: dose was administered simultaneously with current or • (b) post-iontophoresis: dose applied immediately after skin exposure to current. • A current intensity of 0.40 mA was employed for a 10 min period during both protocols. Novel Device (Rotatinig Brush) Procedure
Finite dose permeation experiments were performed using similar conditions as described above. The Franz cell studies were carried out without the use of a donor well, in order to allow for the placement of the iontophoretic device over the epidermal membrane. […] The effectiveness of the seal was confirmed if leakage of receptor fluid from the region of contact between skin and adhesive was not observed.
A formulation with a target dose of approximately 9±1 mg/cm^2 (ACV) and 20±2 mg/cm^2 (CF) was applied to the epidermal membrane surface using a previously calibrated positive displacement pipette. Selected control experiments were then performed as described above (anodal and cathodal iontophoresis was performed by simultaneous application of dose and current over a 10 min period for CF and ACV respectively). At certain time intervals 200 μl of the receiver fluid was carefully withdrawn from the receiver fluid (maximum duration of 4 h). Approximately 4 ml of scintillation cocktail was then added and the ACV sample analysed by scintillation counting, whereas the other penetrant was assayed via the HPLC method already described.

[3] = Table 4a, brush A 450 Nm^−2/20 s, 80 rpm
[4] = Table 4a, brush A 450 Nm^−2/45 s, 80 rpm
[5] = Table 4a, brush A 1200 Nm^−2/45 s, 80 rpm
[6] = Table 5a, EtOH/PBS (50% ethanol donor solution)
[7] = Table 5a, brush A 450 Nm^−2, 45 s, 80 rpm
[8] = Table 5a, brush B 300 Nm^−2, 15 s, 80 rpm
[9] = Table 5a, brush B 300 Nm^−2, 25 s, 80 rpm

With `Cn1c(=O)c2c(ncn2C)n(C)c1=O` [CF, Caffeine] the “Reduction of lag times relative to original value” ([1]; brush A, altering pressure or duration of treatment) was roughly 75%, the KP permeability coefficient [1, 3] was 5.04 ± 1.30 10^−8 cm/s and the TL lag time [1, 3] was 68.33 ± 17.76 min. The EF enhancement factor [1, 3] was 1.47, the JS flux ([1]; Table 4a, brush A 450 Nm^−2/20 s, 80 rpm, n = 2) was 10.3 ± 2.67^p 10^−4 μg/cm/s and the JS flux [1, 4] was 16.3 ± 0.86* 10^−4 μg/cm/s. For the same compound, the KP permeability coefficient [1, 4] was 7.95 ± 0.42 10^−8 cm/s, the TL lag time [1, 4] was 41.21 ± 8.09 min and the EF enhancement factor [1, 4] was 2.34. The JS flux [1, 5] was 18.4 ± 8.93* 10^−4 μg/cm/s, the KP permeability coefficient [1, 5] was 8.97 ± 4.06 10^−8 cm/s and the TL lag time [1, 5] was 16.74 ± 6.50 min. For the same compound, the EF enhancement factor [1, 5] was 2.64, the JS flux ([1]; Table 4a, delipidised skin) was 52.25 ± 25.17* 10^−4 μg/cm/s and the KP permeability coefficient ([1]; Table 4a, delipidised skin) was 25.66 ± 12.28 10^−8 cm/s. The TL lag time ([1]; Table 4a, delipidised skin) was 4.19 ± 1.39 min, the EF enhancement factor ([1]; Table 4a, delipidised skin) was 7.47 and the KP permeability coefficient ([1]; Table 4a, untreated skin) was 3.39 ± 0.75 10^−8 cm/s. For the same compound, the TL lag time ([1]; Table 4a, untreated skin) was 77.66 ± 12.96 min, the KP permeability coefficient [1, 6] was 141.4 ± 31.21 10^−8 cm/s and the TL lag time [1, 6] was 26.71 ± 9.26 min. For the same compound, the EF enhancement factor ([1]; Table 5a, EtOH/PBS) was 15.46, the JS flux [1, 7] was 8.52 ± 0.29* 10^−4 μg/cm/s and the KP permeability coefficient [1, 7] was 41.61 ± 14.19 10^−8 cm/s. For the same compound, the TL lag time [1, 7] was 16.74 ± 3.99 min, the EF enhancement factor [1, 7] was 4.55 and the KP permeability coefficient [1, 8] was 342.4 ± 170.1 10^−8 cm/s. The EF enhancement factor [1, 8] was 37.41, the KP permeability coefficient [1, 9] was 589.93 ± 207.62 10^−8 cm/s and the EF enhancement factor [1, 9] was 64.44. For the same compound, the KP permeability coefficient ([1]; Table 5a, delipidised skin) was 99.68 ± 26.84 10^−8 cm/s, the EF enhancement factor ([1]; Table 5a, delipidised skin) was 10.93 and the TL lag time ([1]; Table 5a, untreated skin) was 19.69 ± 3.54 min. The “Amount of CF in receptor after 30 min compared with other methods of enhancement” value ([2]; brush B 300 Nm^−2/25 s) was “at least double”, the “Amount of CF deposited in receptor compartment compared with untreated skin” value ([2]; chemical enhancement method (50% ethanol)) was “not to be significantly different” and the “Time after which presence of CF in receptor was determined” value ([2]; untreated skin and chemical enhancement, limit of detection 0.05 ug/ml) was 120 min.

Reference: patent publication US20060130266A1, “Dermal drug delivery system” (priority 2004, published 2006)
